Assay results reported in article PMC12036814 (Angewandte Chemie (International Ed. in English), 2025).
Like-named read-outs stand apart in the source and are kept apart here.

Tests used:
[1] = target: T1, PTGR2 (Homo sapiens, UniProt Q8N8N7); assay: PTGR2 activity assay (LC-MS/MS); type: biochemical; details: tested up to 250 μM, data not shown
T1 construct: purchased Antikoerper-online ABIN1098255
Protocol: AIFM1 expression & purification
Recombinant AIFM1 was expressed in a Rosetta2 E. coli strain. Bacterial growth was conducted in LB media supplemented with riboflavin and FAD shaking at 37°C and 180 rpm. Expression was induced with 1.0 mM IPTG and incubated for further 16 h before harvesting. Cells were harvested on ice in PBS and cell pellets stored at -20°C. Cells were lysed by French press and the 6xHis-tagged constructs were purified by Immobilized Metal Affinity Chromatography using Ni Sepharose (6 Fast Flow, GE). The centrifugation-cleared bacterial lysate was bound to beads in binding buffer (200 mM NaCl, 20 mM Tris/Cl pH = 7.4). […]
For gel-based fluorescence labelling of recombinant AIFM1, 1.7 µM recombinant protein was spiked - in to PBS or PBS -diluted HEK293 cell lysate ( 100 µg per reaction sample). […]
Click Master-mix (8 µL, 100 µM TAMRA-azide, Baseclick, Neuried, Germany, Cat# BCFA-008-10, 500 µM BTTAA ligand, Jena Bioscience, Jena, Germany, CLK -067, 1 mM CuSO4) was added and the CuAAC reaction started by addition of 2 µL of aq. sodium ascorbate (c end= 2 mM). […] Fluorescence scanning was performed using a Las-3000 fluorescence darkbox (Fujifilm, Minato, Japan) with a Fujinon VRF 43LMD Lens, 605DF40 filter and 520 nm EPI excitation wavelength and loading controls were developed with Coomassie stain afterwards. […]

[2] = tested on: AIFM1 knockout HEK293 cells; assay: Whole proteome analysis of AIFM1 knockout HEK293 cells; type: cell-based, human; set-up: dose or concentration left out as unconfirmed; details: […] μM, 3 days, versus vehicle-treated AIFM1 knockout cells
[3] = target: NUDT1 (Homo sapiens, UniProt P36639); assay: Thermal protein profiling (TPP) in intact HEK293 cells; type: cell-based; set-up: endogenous in cells; host or cells: HEK293; details: 1 h
Protocol: incubated in a thermoshaker (600 rpm, 16 h, 37 °C). The digest was stopped by adding 10 μL formic
acid (FA) and vortexing followed by centrifugation (12,000 ×g, 3 min, room temperature). 50 mg
SepPak C18 columns (Waters, Milford, USA, Cat# WAT054960) were equilibrated by gravity flow two
times with 1 mL acetonitrile and three times with 1 mL aqueous 0.1% trifluoroacetic acid (TFA) solution.
Subsequently, the samples were loaded by gravity flow, washed three times with 1 mL aqueous 0.1%
TFA solution and once with 0.5 mL aqueous 0.5% formic acid (F A) solution. Elution of peptides into
new 2.0 mL Protein LoBind Eppendorf tubes was performed by two times addition of 250 μL elution
buffer (80% acetonitrile, 0.5% FA) by gravity flow followed by 250 μL elution buffer by vacuum flow
until all liquid was eluted from the column. The eluates were lyophilized. Before MS measurement the
(brief centrifugation after each step).
Thermal protein profiling (TPP)
The experiment was performed similarly to TPP-TR experiments described by Franken et al. with minor
modifications.5 HEK293 cells were grown in 8 T175 flasks to approx. 80-90% confluency. Per replicate
volume of 0.1 N HCl as vehicle control. Per condition two replicates were used, leading to a total of 8
T175 flasks. The cells were washed with PBS, detached with accutase, the two flask per replicate […]

T1 sequence (Q8N8N7 whole entry): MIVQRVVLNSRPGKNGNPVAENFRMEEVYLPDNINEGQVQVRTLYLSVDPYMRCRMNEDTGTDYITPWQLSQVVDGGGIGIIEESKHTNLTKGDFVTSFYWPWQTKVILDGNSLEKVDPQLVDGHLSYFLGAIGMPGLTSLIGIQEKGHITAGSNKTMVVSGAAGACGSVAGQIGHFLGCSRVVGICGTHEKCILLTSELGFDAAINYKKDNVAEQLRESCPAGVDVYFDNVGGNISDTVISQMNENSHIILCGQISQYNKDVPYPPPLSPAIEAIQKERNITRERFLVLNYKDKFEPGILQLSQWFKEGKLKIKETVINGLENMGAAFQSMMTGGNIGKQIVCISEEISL

Compound: O=C(O)c1cn(C2CC2)c2cc(N3CCNCC3)c(F)cc2c1=O [Ciprofloxacin]
- PTGR2 activity [1]: not significantly affected
- regulation of ETC subunits in AIFM1 knockout cells [2]: only minor additional alterations of ETC subunits
- ΔTm at 70 µM ([3]; read-out: ΔTm Rep. 1): 3.29 °C
- ΔTm at 70 µM ([3]; read-out: ΔTm Rep. 2): 3.4 °C
